What was measured:
PI3Kγ = molecular target: T1, PI3Kγ (Mus musculus, UniProt Q9JHG7); test: PI3K isoforms cellular selectivity assay (AKT phosphorylation, RAW264.7, C5a); type: cell-based; details: RAW264.7 cells, C5a stimulation
T1 construct: endogenous in cells; host or cells: RAW264.7 (ATCC)
Method: Cells were lysed and AKT phosphorylation was determined by Western Blotting. Intensity of the bands was determined using ImageJ 1.42q (NIH, USA) and normalized to total AKT (loading control).

NB4 = test: Anti-proliferative effect; type: cell-based; details: Homo sapiens, read-out: GI50 NB4
pERK in MEC-2 cells = test: pERK immunoblotting; type: cell-based
Excerpt: The following antibodies were purchased from Cell Signaling Technology: Akt(#4691), Phospho-Akt(Thr308)(#4056), Phospho-Akt(Ser473)(#4060), GAPDH, GSK-3β(#9315), Phospho-GSK-3β(#9323), FoxO1(#2880), Phospho-FoxO1 (Thr24)/FoxO3a(Thr32)/FoxO4(Thr28)(#2599), PRAS40(#2691), Phospho-PRAS40 (Thr246)(#2997), 4E-BP1(#9644), p70 S6K(#2708), Phospho-p70 S6K (Thr389)(#9234). SQSTM1/p62 (D5E2)(#8025), LC3B(#12513). PARP(#9532), Caspase-3(#9665), Phospho-p44/42 MAPK (Erk1/2) (Thr202/Tyr204)(#4377), p44/42 MAPK (Erk1/2) (#4695), Phospho-NF-ΚB P65 (Ser 536)(#3033), NF-ΚB P65(#4764). Lysophosphatidic Acid (#sc-201053, Santa Cruz), Recombinant Human PDGF-BB (#220-BB, R&D), Recombinant Human C5a (Peprotech, #300-70), goat anti-IgM (#5C07615, Meridian). LC3B antibody (#3868, CST). Tubulin antibody (#8035, Santa Cruz). EEA1 antibody (#610456, BD Bioscience) and LAMP1 antibody (#24170, Abcam). Secondary antibodies, Alexa488-anti-mouse, Alexa594-anti-rabbit and Prolong gold mounting medium with DAPI were purchased from Invitrogen.

MEC-2 = test: Anti-proliferative effect; type: cell-based; details: MEC2, read-out: GI50 MEC-2
U937 = test: Anti-proliferative effect; type: cell-based; details: Homo sapiens, U-937, read-out: GI50 U937
OCI-AML-2 = test: Autophagy markers LC3BII and p62 (immunoblotting); type: cell-based
PI3Kβ = molecular target: T2, PI3Kβ (Homo sapiens, UniProt P42338); test: ADP-Glo biochemical assay; details: purified protein, 10 μM ATP, read-out: IC50 against PI3Kβ (PIK3CB)
T2 construct: purchased Sigma
T2 sequence (P42338 whole entry): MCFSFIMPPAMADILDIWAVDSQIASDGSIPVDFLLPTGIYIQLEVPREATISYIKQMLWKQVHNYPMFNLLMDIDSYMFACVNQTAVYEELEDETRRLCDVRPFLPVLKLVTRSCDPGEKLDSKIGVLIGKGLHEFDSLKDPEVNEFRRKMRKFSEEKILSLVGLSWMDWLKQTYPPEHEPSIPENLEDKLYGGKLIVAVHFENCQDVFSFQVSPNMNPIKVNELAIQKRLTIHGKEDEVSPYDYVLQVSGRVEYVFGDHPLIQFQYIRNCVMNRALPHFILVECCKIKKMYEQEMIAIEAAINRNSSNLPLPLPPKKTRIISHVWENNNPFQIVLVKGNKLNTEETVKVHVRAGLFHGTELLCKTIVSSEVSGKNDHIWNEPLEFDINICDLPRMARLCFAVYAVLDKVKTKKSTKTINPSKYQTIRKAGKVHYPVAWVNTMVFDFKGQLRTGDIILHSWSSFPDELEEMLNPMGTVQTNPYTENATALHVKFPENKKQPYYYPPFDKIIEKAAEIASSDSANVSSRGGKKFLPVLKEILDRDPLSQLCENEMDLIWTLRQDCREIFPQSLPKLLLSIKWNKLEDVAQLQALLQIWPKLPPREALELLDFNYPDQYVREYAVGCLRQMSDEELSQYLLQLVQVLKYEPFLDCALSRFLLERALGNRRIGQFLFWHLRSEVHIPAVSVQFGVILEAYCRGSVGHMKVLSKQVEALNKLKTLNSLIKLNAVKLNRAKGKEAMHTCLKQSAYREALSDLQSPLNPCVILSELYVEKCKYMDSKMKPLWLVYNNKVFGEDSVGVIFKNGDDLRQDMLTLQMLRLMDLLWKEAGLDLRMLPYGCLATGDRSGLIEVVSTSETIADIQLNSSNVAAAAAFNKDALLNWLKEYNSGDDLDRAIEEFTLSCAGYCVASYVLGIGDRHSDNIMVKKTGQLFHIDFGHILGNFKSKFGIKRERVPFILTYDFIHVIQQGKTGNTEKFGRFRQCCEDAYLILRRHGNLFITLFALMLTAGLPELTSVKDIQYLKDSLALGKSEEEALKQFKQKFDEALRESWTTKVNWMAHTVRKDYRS
T2 sequence (P27986 whole entry partner): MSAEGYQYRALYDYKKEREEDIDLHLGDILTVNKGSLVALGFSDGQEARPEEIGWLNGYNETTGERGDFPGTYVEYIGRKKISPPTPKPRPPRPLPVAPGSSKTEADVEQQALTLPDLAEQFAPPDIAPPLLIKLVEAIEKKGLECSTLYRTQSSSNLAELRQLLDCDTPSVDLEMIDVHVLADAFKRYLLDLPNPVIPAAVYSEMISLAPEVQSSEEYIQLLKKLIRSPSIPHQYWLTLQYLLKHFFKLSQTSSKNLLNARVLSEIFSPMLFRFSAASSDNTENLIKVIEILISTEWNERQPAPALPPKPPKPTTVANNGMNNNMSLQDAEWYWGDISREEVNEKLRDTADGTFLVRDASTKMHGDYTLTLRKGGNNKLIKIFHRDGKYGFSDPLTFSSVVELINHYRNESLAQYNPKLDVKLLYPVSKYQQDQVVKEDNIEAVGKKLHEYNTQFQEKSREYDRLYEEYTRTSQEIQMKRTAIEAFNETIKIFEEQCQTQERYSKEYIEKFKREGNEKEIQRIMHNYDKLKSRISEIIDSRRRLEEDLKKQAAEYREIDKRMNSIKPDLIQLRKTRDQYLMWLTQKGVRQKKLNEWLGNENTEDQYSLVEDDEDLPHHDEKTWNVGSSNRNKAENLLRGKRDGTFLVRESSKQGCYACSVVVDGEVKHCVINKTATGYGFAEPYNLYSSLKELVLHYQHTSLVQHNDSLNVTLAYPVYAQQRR

CMK = test: Anti-proliferative effect; type: cell-based; details: Homo sapiens, read-out: GI50 CMK
[1] = tested on: LC3BII accumulation in HeLa cells; test: LC3BII accumulation in the presence of EBSS and HCQ (immunoblot); type: cell-based; details: Homo sapiens, EBSS and HCQ (25 μM), read-out: EC50 prevention of LC3BII accumulation
Method: HeLa cells were treated with different concentrations of inhibitors for 16 hours. For all immunofluorescence experiments, cells were fixed in -20 °C methanol for 5 minutes or 3.7% (v/v) formaldehyde in phosphate-buffered saline (PBS) for 20 minutes. For LC3B staining, cells were fixed in -20 °C methanol. For EEA1 and LAMP1 staining, cells were fixed in PBS+ formaldehyde. Cells were then permeabilized with TBSTx (0.1% Triton X-100), blocked in AbDil (TBSTx + 2% BSA + 0.1% NaN3), and probed with primary and secondary antibodies diluted in AbDil. Cells were rinsed thoroughly with TBSTx and mounted by anti-fade prolong Gold with DAPI. Images were taken using a Leica DMI4000B fluorescent microscope. All experiments were repeated at least three times). […] Cells were lysed in lysis buffer. P62, LC3B, and GAPDH antibodies were used for immunoblotting.

PIK3C2B = molecular target: T3, PIK3C2B (Homo sapiens, UniProt O00750); test: ADP-Glo biochemical assay; details: 50 μM ATP, read-out: IC50 against PIK3C2B
T3 construct: purchased Invitrogen
T3 sequence (O00750 whole entry): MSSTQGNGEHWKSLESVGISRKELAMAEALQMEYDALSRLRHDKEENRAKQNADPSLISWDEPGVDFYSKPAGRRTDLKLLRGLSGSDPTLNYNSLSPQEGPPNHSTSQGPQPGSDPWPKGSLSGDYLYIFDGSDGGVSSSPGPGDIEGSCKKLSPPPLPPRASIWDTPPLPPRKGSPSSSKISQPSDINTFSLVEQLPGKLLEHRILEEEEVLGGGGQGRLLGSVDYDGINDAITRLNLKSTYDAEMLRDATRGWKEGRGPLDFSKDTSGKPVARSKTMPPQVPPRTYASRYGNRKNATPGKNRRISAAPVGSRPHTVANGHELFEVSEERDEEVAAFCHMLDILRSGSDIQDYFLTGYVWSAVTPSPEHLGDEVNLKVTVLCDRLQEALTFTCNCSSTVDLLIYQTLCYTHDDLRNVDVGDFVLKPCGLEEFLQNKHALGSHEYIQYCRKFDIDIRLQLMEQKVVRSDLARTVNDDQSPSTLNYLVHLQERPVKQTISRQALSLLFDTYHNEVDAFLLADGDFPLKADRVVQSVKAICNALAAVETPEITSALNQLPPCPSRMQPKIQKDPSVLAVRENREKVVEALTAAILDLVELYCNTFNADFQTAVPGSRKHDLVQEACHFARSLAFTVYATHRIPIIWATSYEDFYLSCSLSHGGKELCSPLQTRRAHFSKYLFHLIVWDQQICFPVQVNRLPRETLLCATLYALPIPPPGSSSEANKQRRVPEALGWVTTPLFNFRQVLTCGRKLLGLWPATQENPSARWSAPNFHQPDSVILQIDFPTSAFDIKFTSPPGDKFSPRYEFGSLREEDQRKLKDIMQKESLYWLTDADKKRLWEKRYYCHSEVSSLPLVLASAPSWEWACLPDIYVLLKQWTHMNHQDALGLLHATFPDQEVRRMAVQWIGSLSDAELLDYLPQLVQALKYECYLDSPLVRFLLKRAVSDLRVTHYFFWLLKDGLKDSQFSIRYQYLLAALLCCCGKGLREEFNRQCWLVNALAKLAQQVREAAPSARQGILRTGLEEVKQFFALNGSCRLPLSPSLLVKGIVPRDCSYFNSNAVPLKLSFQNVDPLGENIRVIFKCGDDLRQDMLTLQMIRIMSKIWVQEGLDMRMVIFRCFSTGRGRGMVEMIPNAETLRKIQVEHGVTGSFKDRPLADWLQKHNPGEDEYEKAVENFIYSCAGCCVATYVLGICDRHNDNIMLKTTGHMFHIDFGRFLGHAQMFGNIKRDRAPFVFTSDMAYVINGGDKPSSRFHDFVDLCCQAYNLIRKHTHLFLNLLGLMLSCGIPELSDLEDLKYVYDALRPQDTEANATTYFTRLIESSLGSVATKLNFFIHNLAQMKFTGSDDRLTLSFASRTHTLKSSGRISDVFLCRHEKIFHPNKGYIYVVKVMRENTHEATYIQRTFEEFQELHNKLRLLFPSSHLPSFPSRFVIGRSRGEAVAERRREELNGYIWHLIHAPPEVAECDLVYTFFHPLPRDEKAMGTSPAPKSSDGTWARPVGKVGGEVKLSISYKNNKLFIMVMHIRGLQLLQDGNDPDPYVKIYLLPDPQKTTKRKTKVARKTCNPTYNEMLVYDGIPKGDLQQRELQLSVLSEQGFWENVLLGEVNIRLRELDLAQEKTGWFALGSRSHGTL

PIK3C2A = molecular target: T4, PIK3C2A (Homo sapiens, UniProt O00443); test: ADP-Glo biochemical assay; details: 50 μM ATP, read-out: IC50 against PIK3C2A
T4 construct: purchased Invitrogen

NOMO-1 = test: Anti-proliferative effect; type: cell-based; details: Homo sapiens, NOMO-1, read-out: GI50 NOMO-1
MOLM-14 = test: Anti-proliferative effect; type: cell-based; details: AML (FLT3-ITD)
VPS34 = molecular target: T5, VPS34 (Homo sapiens, UniProt Q8NEB9); test: Kinase kinetic assay with varied ATP; type: biochemical; details: varied ATP concentrations
T5 construct: purchased Invitrogen
Method: Kinetic analyses of PI3Kδ and Vps34 were performed using a luminometric kinase assay varying the concentration of ATP using the ADP-Glo reagents (Promega). […] After 60 min incubation at RT, varied concentrations of ATP and 0.1 mM substrate (PIP2:PS for PI3Kδ, PI:PS for Vps34) were added and incubated for 60 min at 37° C. The overall rate of reaction was determined as the slope of the decreasing phase of the reaction. Each data point was collected in duplicate and kinetic parameters were obtained using Prism 5.0 (GraphPad Software, San Diego, CA).

T1 sequence (Q9JHG7 whole entry, canonical isoform): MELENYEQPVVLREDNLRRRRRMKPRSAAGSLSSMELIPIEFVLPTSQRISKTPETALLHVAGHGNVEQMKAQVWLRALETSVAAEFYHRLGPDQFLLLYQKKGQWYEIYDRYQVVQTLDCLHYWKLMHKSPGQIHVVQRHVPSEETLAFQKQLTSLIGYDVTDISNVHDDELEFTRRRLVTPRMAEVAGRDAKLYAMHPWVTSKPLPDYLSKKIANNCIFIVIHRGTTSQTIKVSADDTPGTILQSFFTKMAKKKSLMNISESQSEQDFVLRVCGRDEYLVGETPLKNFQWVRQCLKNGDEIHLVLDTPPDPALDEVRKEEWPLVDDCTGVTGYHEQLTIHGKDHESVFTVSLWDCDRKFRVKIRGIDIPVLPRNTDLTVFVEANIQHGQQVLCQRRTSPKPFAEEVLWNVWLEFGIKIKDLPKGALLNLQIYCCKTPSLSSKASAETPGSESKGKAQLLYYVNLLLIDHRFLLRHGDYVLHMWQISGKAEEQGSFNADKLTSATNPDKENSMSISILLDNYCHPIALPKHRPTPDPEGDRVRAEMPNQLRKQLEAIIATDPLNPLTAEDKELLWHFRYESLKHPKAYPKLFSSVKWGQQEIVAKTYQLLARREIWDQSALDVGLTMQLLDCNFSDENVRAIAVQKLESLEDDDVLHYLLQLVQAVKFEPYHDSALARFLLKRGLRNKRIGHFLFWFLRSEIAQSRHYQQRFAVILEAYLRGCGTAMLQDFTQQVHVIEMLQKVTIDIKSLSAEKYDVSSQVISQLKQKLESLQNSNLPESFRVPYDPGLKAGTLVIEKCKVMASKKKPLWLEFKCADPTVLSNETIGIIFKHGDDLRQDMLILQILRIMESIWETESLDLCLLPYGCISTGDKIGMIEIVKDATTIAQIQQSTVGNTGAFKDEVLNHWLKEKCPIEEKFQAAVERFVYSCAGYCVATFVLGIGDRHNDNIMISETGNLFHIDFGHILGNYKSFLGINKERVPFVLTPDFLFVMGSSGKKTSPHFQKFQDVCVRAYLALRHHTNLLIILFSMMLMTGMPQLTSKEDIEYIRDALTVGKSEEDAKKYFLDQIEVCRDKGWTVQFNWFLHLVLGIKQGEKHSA

Cc1nc(NC(=O)CN)sc1-c1cnc(Cl)c(NS(=O)(=O)c2ccc(C(C)(C)C)cc2)c1 [PI3KD/V-IN-01, 2-amino-N-(5-(5-(4-tert-butylphenylsulfonamido)-6-chloropyridin-3-yl)-4-methylthiazol-2-yl)acetamide]
EC50 (PI3Kγ): 186 nM | GI50 (NB4): 1400 nM | effect on pERK (pERK in MEC-2 cells): significantly inhibited | GI50 (MEC-2): 2400 nM | GI50 (U937): 2200 nM | levels of the autophagy markers, LC3BII and p62 (OCI-AML-2): concentration-dependent increase | IC50 (PI3Kβ): 111 nM | GI50 (CMK): 2000 nM | EC50 [1]: 413 nM | IC50 (PIK3C2B): > 10000 nM | IC50 (PIK3C2A): > 10000 nM | GI50 (NOMO-1): 2300 nM | GI50 (MOLM-14): 510 nM | GI50 (MOLM-14; Homo sapiens, MOLM-14): < 1000 nM | Mode of inhibition against Vps34 (VPS34): ATP competitive inhibitor
